Measurements as given in US11505592B2, “Diagnosis and therapy of multiple sclerosis” (PRINDEX S.R.L., priority 2015, dated 2022).

Experiments:
CTRL sera = test: PEPSCAN-based ELISA, binding of control (CTRL) sera to library peptides; parameters: species or system human; conditions: ELISA binding value, CTRLs n = 10
Text: (§1) The linear and CLIPS peptides are synthesized based on the amino acid sequence of the target protein using standard Fmoc-chemistry and deprotected using […] with scavengers. The constrained peptides are synthesized on chemical scaffolds in order to reconstruct conformational epitopes, using Chemically Linked Peptides on Scaffolds (CLIPS) technology (Timmerman et al. (2007). For example, the single looped peptides are synthesized containing a dicysteine, which was cyclized by treating with alpha, alpha′-dibromoxylene and the size of the loop is varied by introducing cysteine residues at variable spacing. If other cysteines besides the newly introduced cysteines are present, they are replaced by alanine. The side-chains of the multiple cysteines in the peptides are coupled to CLIPS templates by reacting onto credit-card format polypropylene PEPSCAN cards (455 peptide formats/card) with a 0.5 mM solution of CLIPS template such as 1,3-bis (bromomethyl) benzene in ammonium bicarbonate (20 mM, pH 7.9)/acetonitrile (1:1(v/v)). The cards are gently shaken in the solution for 30 to 60 minutes while completely covered in solution. Finally, the cards are washed extensively with excess of H2O and sonicated in distrupt-buffer containing 1 percent SDS/0.1 percent beta-mercaptoethanol in PBS (pH 7.2) at 70° C. for 30 minutes, followed by sonication in H2O for another 45 minutes.
(§2) The binding of antibody to each peptide is tested in a PEPSCAN-based ELISA. The 455-well credit card format polypropylene cards containing the covalently linked peptides are incubated with primary antibody solution for example consisting of 1/1000 diluted serum in blocking solution, for example 4% horse serum, 5% ovalbumin (w/v) in PBS/1% Tween. After washing, the peptides are incubated with a 1/1000 dilution of antibody peroxidase conjugate for one hour at 25° C. After washing, the peroxidase substrate 2,2′-azino-di-3-ethylbenzthiazoline sulfonate (ABTS) and 2 microlitres of 3 percent H2O2 are added. After one hour, the color development are measured. The color development are quantified with a charge coupled device (CCD)-camera and an image processing system (Slootstra et al., 1996).
(§3) The raw data are optical values obtained by a CCD-camera calibrated to export absorption values compatible with a standard 96-well plate ELISA-reader. First the CCD-camera makes a picture of the card before peroxidase coloring and then again a picture after the peroxidase coloring. These two pictures are substracted from each other yielding a binding value for each peptide.
(§4) All peptides have been synthesized in a peptide array format and the binding of 20 different sera to all peptide libraries were measured in an ELISA based set up following the procedure described in detail in the method section “Peptide synthesis and screening assays”. In particular 2 sets of experiments were performed on the 2 libraries by using 2 different dilutions of the human patients sera. In the first set of experiment the 20 sera were used at 1:2500 dilutions, while in the second experiment the dilution of the sera was 1:1000. The binding of the different sera to all peptides was quantified and analyzed in detail (Tables 1 and 2, FIGS. 15A, B, C, D and […]

MS sera = test: PEPSCAN-based ELISA, binding of MS sera to library peptides; parameters: species or system human; conditions: ELISA binding value, MS sera n = 9
Text: as §1, §2, §3, §4

| Sequence | MEAN CTRL (CTRL sera; NOX2 library) | MEAN MS (MS sera; NOX2 library) | MEAN CTRL (CTRL sera; 5HT2A receptor library) | MEAN MS (MS sera; 5HT2A receptor library) |
| --- | --- | --- | --- | --- |
| CNSDPYSVALSELGDRCITVSEQKISEWGKIKC [SEQ ID NO: 143] | 456.45 | 781.611 |  |  |
| CNSDPYSVALSELGDRCVSEQKISEWGKIKESC [SEQ ID NO: 130] | 434.925 | 764.528 |  |  |
| CNSLMQLNDDTRLYCLSSEGSLSPSSLSC [Peptide 6] |  |  | 249.55 | 418.89 |
| CNSLMQLNDDTRLYCMDILSEENTSLSSC [Peptide 1] |  |  | 252.10 | 445.78 |
| CNSLMQLNDDTRLYCYSNDFNSGEANTSC [Peptide 34] |  |  | 268.10 | 459.72 |
| CNSLMQLNDTRLYCSGEANTSDAFNWTC [Peptide 19] |  |  | 299.55 | 564.11 |
| CPYSVALSELGDRQNECITVSEQKISEWGKIKC [SEQ ID NO: 124] | 469.75 | 824.056 |  |  |
| CQKISEWGKIKAAPIPC [SEQ ID NO: 153] | 402.15 | 710.778 |  |  |
| CQKISEWGKIKESPIPCQNESYLNFARKRIKNC [SEQ ID NO: 69] | 458.3 | 855.111 |  |  |
| CQKISEWGKIKESPIPCTVSEQKISEWGKIKEC [SEQ ID NO: 93] | 476.45 | 846.833 |  |  |
| CQKISEWGKIKESPIPCVHNITVSEQKISEWGC [SEQ ID NO: 149] | 263.25 | 442.611 |  |  |
| CQKISEWGKIKESPIPCVSEQKISEWGKIKESC [SEQ ID NO: 98] | 450.975 | 815.972 |  |  |
| CQNESYLNFARKRIKNC [SEQ ID NO: 90] | 361.75 | 667.389 |  |  |
| CQNESYLNFARKRIKNCNFARKRIKNPEGGLYC [SEQ ID NO: 150] | 392.3 | 697.056 |  |  |
| CQNESYLNFARKRIKNCSYLNFARKRIKNPEGC [SEQ ID NO: 135] | 396.7 | 711.556 |  |  |
| CQNESYLNFARKRIKNCVSEQKISEWGKIKESC [SEQ ID NO: 111] | 419.075 | 747.139 |  |  |
| CQTAESLAVHNITVSECQNESYLNFARKRIKNC [SEQ ID NO: 100] | 367.45 | 697.667 |  |  |
| CQTAESLAVHNITVSECVSEQKISEWGKIKESC [SEQ ID NO: 139] | 339.65 | 590.111 |  |  |
| CRQNESYLNFARKRIKC [SEQ ID NO: 95] | 350.1 | 653.944 |  |  |
| CRVNNSDPYSVALSELCQNESYLNFARKRIKNC [SEQ ID NO: 137] | 398.05 | 743.167 |  |  |
| CRVNNSDPYSVALSELCVSEQKISEWGKIKESC [SEQ ID NO: 151] | 422.275 | 731.111 |  |  |
| CSDAFNWTVDSENRCMDILSEENTSLSSC [Peptide 22] |  |  | 207.20 | 394.00 |

| Sequence | MEAN CTRL (CTRL sera; NOX2 library) | MEAN MS (MS sera; NOX2 library) | MEAN CTRL (CTRL sera; 5HT2A receptor library) | MEAN MS (MS sera; 5HT2A receptor library) |
| --- | --- | --- | --- | --- |
| CSELGDRQNESYLNFACQNESYLNFARKRIKNC [SEQ ID NO: 80] | 398.9 | 773.167 |  |  |
| CSEQKISEWGKIKESPC [SEQ ID NO: 114] | 271.75 | 501.167 |  |  |
| CSLSSTTNSLMQLNCMDILSEENTSLSSC [Peptide 18] |  |  | 188.90 | 323.72 |
| CSSLSLLHLQEKNWCMDILSEENTSLSSC [Peptide 45] |  |  | 198.50 | 318.17 |
| CSTTNSLMQLNDDTCMDILSEENTSLSSC [Peptide 11] |  |  | 186.85 | 321.28 |
| CSYLNFARKRIKNPEGCGDRQNESYLNFARKRC [SEQ ID NO: 125] | 430.35 | 786.389 |  |  |
| CSYLNFARKRIKNPEGCITVSEQKISEWGKIKC [SEQ ID NO: 122] | 457.4 | 796.222 |  |  |
| CSYLNFARKRIKNPEGCNFARKRIKNPEGGLYC [SEQ ID NO: 138] | 371.8 | 659.944 |  |  |
| CSYLNFARKRIKNPEGCQNESYLNFARKRIKNC [SEQ ID NO: 61] | 398.9 | 778.278 |  |  |
| CTRLYSNDFNSGEACKESSNEDVIGALLC [Peptide 42] |  |  | 333.60 | 561.03 |
| CTVDSENRTNLSSECMDILSEENTSLSSC [Peptide 13] |  |  | 160.80 | 300.11 |
| CTVDSENRTNLSSECRTNLSSEGSLSPSC [Peptide 25] |  |  | 296.95 | 507.22 |
| CVALSELGDRQNESYLCQNESYLNFARKRIKNC [SEQ ID NO: 110] | 406.75 | 761.778 |  |  |
| CVFKEGSSLLADDNCKESSNEDVIGALLC [Peptide 38] |  |  | 348.13 | 594.61 |
| CVFKEGSSLLADDNCSDAFNWTVDSENRC [Peptide 47] |  |  | 244.50 | 399.89 |
| CVNARVNNSDPYSVALCTVSEQKISEWGKIKEC [SEQ ID NO: 154] | 455.6 | 799.667 |  |  |
| CVNARVNNSDPYSVALCVSEQKISEWGKIKESC [SEQ ID NO: 128] | 436.575 | 772.583 |  |  |
| CVRGQTAESLAVHNITCITVSEQKISEWGKIKC [SEQ ID NO: 134] | 440.5 | 758.278 |  |  |
| CVRGQTAESLAVHNITCQNESYLNFARKRIKNC [SEQ ID NO: 66] | 438.35 | 824.500 |  |  |
| CVRGQTAESLAVHNITCSLAVHNITVSEQKISC [SEQ ID NO: 156] | 304.75 | 546.444 |  |  |
| CVRGQTAESLAVHNITCVHNITVSEQKISEWGC [SEQ ID NO: 148] | 263.5 | 445.278 |  |  |
| CVSEQKISEWGKIKESCEQKISEWGKIKESPIC [SEQ ID NO: 84] | 443.5 | 811.056 |  |  |

| Sequence | MEAN CTRL (CTRL sera; NOX2 library) | MEAN MS (MS sera; NOX2 library) | MEAN CTRL (CTRL sera; 5HT2A receptor library) | MEAN MS (MS sera; 5HT2A receptor library) |
| --- | --- | --- | --- | --- |
| CVSEQKISEWGKIKESCGDRQNESYLNFARKRC [SEQ ID NO: 112] | 462.45 | 846.778 |  |  |
| CVSEQKISEWGKIKESCQNESYLNFARKRIKNC [SEQ ID NO: 64] | 402.9 | 804.556 |  |  |
| CVSEQKISEWGKIKESCTVSEQKISEWGKIKEC [SEQ ID NO: 142] | 446.5 | 760.333 |  |  |
| CVSEQKISEWGKIKESCVSEQKISEWGKIKESC [SEQ ID NO: 115] | 432.35 | 756.639 |  |  |
| DPYSVALSELAARQN [SEQ ID NO: 78] | 325.05 | 565.389 |  |  |
| DPYSVALSELGDRQN [SEQ ID NO: 132] | 177.25 | 300.556 |  |  |
| ESYLNFARK [SEQ ID NO: 107] | 296.3 | 535.667 |  |  |
| FARKRIKNP [SEQ ID NO: 67] | 337.4 | 666.111 |  |  |
| GDRQNESYLNAGRKR [SEQ ID NO: 68] | 294.2 | 547.278 |  |  |
| GDRQNESYLNFARKR [SEQ ID NO: 120] | 163.95 | 325.333 |  |  |
| GKIKECPIP [SEQ ID NO: 102] | 324.35 | 594.611 |  |  |
| GYRWPLPSK [Peptide 14] |  |  | 322.80 | 623.00 |
| KISEWGKIK [SEQ ID NO: 83] | 223.9 | 404.500 |  |  |
| LGDRQNESYLAAARK [SEQ ID NO: 127] | 262.75 | 478.278 |  |  |
| LGDRQNESYLNFARK [SEQ ID NO: 104] | 252.4 | 457.556 |  |  |
| LNFARKRIK [SEQ ID NO: 59] | 294.6 | 557.056 |  |  |
| LNFARKRIKNAAGGL [SEQ ID NO: 91] | 187.85 | 354.778 |  |  |
| LTILYGYRWPAASKL [Peptide 3] |  |  | 322.35 | 653.28 |
| LTILYGYRWPLPSKL [Peptide 8] |  |  | 340.05 | 647.17 |
| NESYLNFARKAAKNP [SEQ ID NO: 62] | 279.1 | 505.278 |  |  |
